Active and inactive are the calls of the source. The calls are words filed in the database; no cut-off is given here.
How the values were obtained:
HCT-116 [1] = assay: Induction of apoptosis in human HCT-116 cells assessed as downregulation of PRIM1 mRNA expression at 10 to 500 nM incubated for 6 to 48 hrs by RNA analysis; type: functional, cell-based; conditions: dose 10-500 nM, time 6-48 hrs
HCT-116 [2] = assay: Induction of apoptosis in human HCT-116 cells assessed as downregulation of CTPS2 gene expression at 10 to 500 nM incubated for 6 to 48 hrs by RNA analysis; type: functional, cell-based; conditions: dose 10-500 nM, time 6-48 hrs
[3] = Toxicity in SCID mouse xenografted with human PDX27454 cells assessed as body weight loss at 7 mg/kg,po administrated once per week for 4 weeks; type: organism-based; conditions: in vivo, 672 h
HCT-116 [4] = assay: Induction of apoptosis in human HCT-116 cells assessed as downregulation of PRKACB gene expression at 10 to 500 nM incubated for 6 to 48 hrs by RNA analysis; type: functional, cell-based; conditions: dose 10-500 nM, time 6-48 hrs
HCT-116 [5] = assay: Induction of apoptosis in human HCT-116 cells assessed as upregulation of USP11 mRNA expression at 10 to 500 nM incubated for 6 to 48 hrs by RNA analysis; type: functional, cell-based; conditions: dose 10-500 nM, time 6-48 hrs
HCT-116 [6] = assay: Induction of apoptosis in human HCT-116 cells assessed as downregulation of XIAP protein expression incubated for 48 hrs by Western blotting analysis; type: functional, cell-based
HCT-116 [7] = assay: Induction of apoptosis in human HCT-116 cells assessed as modulation of DDX47 mRNA expression at 10 to 500 nM incubated for 6 to 48 hrs by RNA analysis; type: functional, cell-based; conditions: dose 10-500 nM, time 6-48 hrs
HCT-116 [8] = assay: Induction of apoptosis in human HCT-116 cells assessed as downregulation of TPR gene expression at 10 to 500 nM incubated for 6 to 48 hrs by RNA analysis; type: functional, cell-based; conditions: dose 10-500 nM, time 6-48 hrs
HCT-116 [9] = assay: Induction of apoptosis in human HCT-116 cells assessed as modulation of TOP1 mRNA expression at 10 to 500 nM incubated for 6 to 48 hrs by RNA analysis; type: functional, cell-based; conditions: dose 10-500 nM, time 6-48 hrs
HCT-116 [10] = assay: Induction of apoptosis in human HCT-116 cells assessed as modulation of TOP3A mRNA expression at 10 to 500 nM incubated for 6 to 48 hrs by RNA analysis; type: functional, cell-based; conditions: dose 10-500 nM, time 6-48 hrs
HCT-116 [11] = assay: Induction of apoptosis in human HCT-116 cells assessed as upregulation of Bax mRNA expression at 10 to 500 nM incubated for 6 to 48 hrs by RNA analysis; type: functional, cell-based; conditions: dose 10-500 nM, time 6-48 hrs
HCT-116 [12] = assay: Induction of apoptosis in human HCT-116 cells assessed as downregulation of NUP43 gene expression at 10 to 500 nM incubated for 6 to 48 hrs by RNA analysis; type: functional, cell-based; conditions: dose 10-500 nM, time 6-48 hrs
[13] = Toxicity in SCID mouse xenografted with human PDX27454 cells assessed as body weight loss at 8 mg/kg,po administrated once per week for 3 weeks; type: organism-based; conditions: in vivo, 504 h
HCT-116 [14] = assay: Induction of apoptosis in human HCT-116 cells assessed as downregulation of END1 gene expression at 10 to 500 nM incubated for 6 to 48 hrs by RNA analysis; type: functional, cell-based; conditions: dose 10-500 nM, time 6-48 hrs
HCT-116 [15] = assay: Induction of apoptosis in human HCT-116 cells assessed as downregulation of PCK2 gene expression at 10 to 500 nM incubated for 6 to 48 hrs by RNA analysis; type: functional, cell-based; conditions: dose 10-500 nM, time 6-48 hrs
HCT-116 [16] = assay: Induction of apoptosis in human HCT-116 cells assessed as downregulation of PPAT gene expression at 10 to 500 nM incubated for 6 to 48 hrs by RNA analysis; type: functional, cell-based; conditions: dose 10-500 nM, time 6-48 hrs
HeLa = assay: Growth inhibition of human HeLa cells incubated for 48 hrs by MTT reagent based ELISA reader analysis; type: functional, cell-based
HCT-116 [17] = assay: Induction of apoptosis in human HCT-116 cells assessed as downregulation of PPP2CA gene expression at 10 to 500 nM incubated for 6 to 48 hrs by RNA analysis; type: functional, cell-based; conditions: dose 10-500 nM, time 6-48 hrs
HCT-116 [18] = assay: Induction of apoptosis in human HCT-116 cells assessed as upregulation of POLR2A mRNA expression at 10 to 500 nM incubated for 6 to 48 hrs by RNA analysis; type: functional, cell-based; conditions: dose 10-500 nM, time 6-48 hrs
[19] = Toxicity in SCID mouse assessed as maximum tolerated dose at po administration; type: organism-based; conditions: in vivo
HCT-116 [20] = assay: Induction of apoptosis in human HCT-116 cells assessed as downregulation of GNPDA2 gene expression at 10 to 500 nM incubated for 6 to 48 hrs by RNA analysis; type: functional, cell-based; conditions: dose 10-500 nM, time 6-48 hrs
PDX27454 [21] = assay: Antitumor activity against human PDX27454 cells xenografted in SCID mouse model assessed as reduction in tumor growth at 15 mg/kg,ip administrated once per week for 4 weeks; type: functional, organism-based
[22] = Toxicity in SCID mouse xenografted with human PDX27454 cells assessed as body weight loss at 15 mg/kg,ip administrated once per week for 4 weeks; type: organism-based; conditions: in vivo, 672 h
PDX27454 [23] = assay: Antitumor activity against human PDX27454 cells xenografted in SCID mouse model assessed as reduction in tumor growth at 10 mg/kg,ip administrated once per week for 4 weeks; type: functional, organism-based
PDX27454 [24] = assay: Antitumor activity against human PDX27454 cells xenografted in SCID mouse model assessed as reduction in tumor growth at 15 mg/kg,po administrated once per week for 4 weeks; type: functional, organism-based
[25] = Toxicity in SCID mouse xenografted with human PDX27454 cells assessed as body weight loss at 15 mg/kg,po administrated once per week for 4 weeks; type: organism-based; conditions: in vivo, 672 h
HCT-116 [26] = assay: Induction of apoptosis in human HCT-116 cells assessed as early apoptotic cells at 2.5 nM incubated for 48 hrs by Annexin V-FITC/PI staining based flow cytometry assay; type: functional
HCT-116 [27] = assay: Induction of apoptosis in human HCT-116 cells assessed as late apoptotic cells at 2.5 nM incubated for 48 hrs by Annexin V-FITC/PI staining based flow cytometry assay; type: functional
HCT-116 [28] = assay: Induction of apoptosis in human HCT-116 cells assessed as early apoptotic cells at 5 nM incubated for 48 hrs by Annexin V-FITC/PI staining based flow cytometry assay; type: functional
HCT-116 [29] = assay: Induction of apoptosis in human HCT-116 cells assessed as late apoptotic cells at 5 nM incubated for 48 hrs by Annexin V-FITC/PI staining based flow cytometry assay; type: functional
Cell membrane = assay: Induction of mitochondrial membrane potential loss in human HCT-116 cells assessed as ratio of red to green fluorescence intensity at 20 nM incubated for 24 hrs by JC-1 staining based flow cytometry; type: subcellular
HCT-116 [30] = assay: Induction of apoptosis in human HCT-116 cells assessed as downregulation of Bcl-2 protein expression incubated for 48 hrs by Western blotting analysis; type: functional, cell-based
HCT-116 [31] = assay: Induction of apoptosis in human HCT-116 cells assessed as upregulation of p21 protein expression incubated for 48 hrs by Western blotting analysis; type: functional, cell-based
HCT-116 [32] = assay: Induction of apoptosis in human HCT-116 cells assessed as upregulation of Bax protein expression incubated for 48 hrs by Western blotting analysis; type: functional, cell-based
HCT-116 [33] = assay: Induction of cell cycle arrest in human HCT-116 cells assessed as accumulation of cells at S phase at 2.5 to 10 nM incubated for 48 hrs by Annexin V-FITC/PI staining based flow cytometry assay; type: functional; conditions: dose 2.5-10 nM
HCT-116 [34] = assay: Induction of apoptosis in human HCT-116 cells assessed as late apoptotic cells at 10 nM incubated for 48 hrs by Annexin V-FITC/PI staining based flow cytometry assay; type: functional

Compound	Activity (HCT-116 [1])	Activity (HCT-116 [2])	Activity (HCT-116 [4])	Activity (HCT-116 [5])	Activity (HCT-116 [6])	Activity (HCT-116 [7])	Activity (HCT-116 [8])	Activity (HCT-116 [9])	Activity (HCT-116 [10])	Activity (HCT-116 [11])	Activity (HCT-116 [12])	Activity (HCT-116 [14])	Activity (HCT-116 [15])	Activity (HCT-116 [16])	IC50 (HeLa)	Activity (HCT-116 [17])	Activity (HCT-116 [18])	other results
CC[C@@]1(O)C(=O)OCc2c1cc1n(c2=O)Cc2c-1nc1cc3c(cc1c2-c1ccc(OC)cc1)OCO3	Active	Active	Active	Active	Active	Active	Active	Active	Active	Active	Active	Active	Active	Active	48.3 nM	Active	Active	Activity [3]: > 20%; Activity [13]: 20%
CC[C@@]1(O)C(=O)OCc2c1cc1n(c2=O)Cc2cc3cc4c(cc3nc2-1)OCO4	Active	Active	Active	Active	–	Active	Active	Active	Active	Active	Active	Active	Active	Active	32.4 nM	Active	Active	MTD [19]: 10 mg/kg; Activity (HCT-116 [20]): Active
CCc1ccc(-c2c3c(nc4cc5c(cc24)OCO5)-c2cc4c(c(=O)n2C3)COC(=O)[C@]4(O)CC)cc1	Active	Active	Active	Active	Active	Active	Active	Active	Active	Active	Active	Active	Active	Active	37.5 nM	Active	Active	Activity (PDX27454 [21]): inactive; Activity [22]: Non-Toxic; Activity (PDX27454 [23]): inactive; Activity (PDX27454 [24]): Active; Activity [25]: Toxic
CC[C@@]1(O)C(=O)OCc2c1cc1n(c2=O)Cc2c-1nc1cc3c(cc1c2-c1cc(OC)cc(OC)c1)OCO3	Active	Active	–	Active	–	–	Active	Active	Active	Active	Active	Active	Active	Active	< 6.4 nM	Active	Active	Activity (HCT-116 [26]): 20.76%; Activity (HCT-116 [27]): 5.58%; Activity (HCT-116 [28]): 26.86%; Activity (HCT-116 [29]): 9.79%; Ratio (Cell membrane): 2.62; Activity (HCT-116 [30]): Dose-Dependent Effect; Activity (HCT-116 [31]): Dose-Dependent Effect; Activity (HCT-116 [32]): Dose-Dependent Effect; Activity (HCT-116 [33]): Active; Activity (HCT-116 [34]): 10.87%

Source: ChEMBL document CHEMBL5376003, “Structure-Activity Relationship of FL118 Platform Position 7 Versus Position 9-Derived Compounds and Their Mechanism of Action and Antitumor Activity” (J Med Chem, 2023)
